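Test compounds were applied to cells in 96-well plates for 48 hours at 5 doses. Definition used: TGI = concentration required for complete inhibition of growth.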
Tests used:
Test in all cases: inhibition of tumour cell growth, NCI panel, 48 h
HCC-2998 colon = system: HCC-2998 colon
ACHN renal = system: ACHN renal
HT29 colon = system: HT29 colon
NCI-H460 lung = system: NCI-H460 lung
SF-268 CNS = system: SF-268 CNS
HOP-18 NSCLC = system: HOP-18 NSCLC
NCI-H226 lung = system: NCI-H226 lung
OVCAR-8 ovarian = system: OVCAR-8 ovarian
OVCAR-3 ovarian = system: OVCAR-3 ovarian
SF-295 CNS = system: SF-295 CNS
UACC-62 melanoma = system: UACC-62 melanoma
LXFL 529 NSCLC = system: LXFL 529 NSCLC
KM12 colon = system: KM12 colon
HOP-92 NSCLC = system: HOP-92 NSCLC
RXF 393 renal = system: RXF 393 renal
SNB-78 CNS = system: SNB-78 CNS
KM20L2 colon = system: KM20L2 colon
SW-620 colon = system: SW-620 colon
HL-60(TB) leukemia = system: HL-60(TB) leukemia
CAKI-1 renal = system: CAKI-1 renal
TK-10 renal = system: TK-10 renal
DMS 114 small cell lung = system: DMS 114 small cell lung
NCI-H522 lung = system: NCI-H522 lung
SK-MEL-28 melanoma = system: SK-MEL-28 melanoma
RXF-631 renal = system: RXF-631 renal
M19-MEL melanoma = system: M19-MEL melanoma
SN12C renal = system: SN12C renal
HCT-116 colon = system: HCT-116 colon
UO-31 renal = system: UO-31 renal
SR leukemia = system: SR leukemia
RPMI-8226 leukemia = system: RPMI-8226 leukemia
A549 NSCLC = system: A549 NSCLC
MALME-3M melanoma = system: MALME-3M melanoma
LOX IMVI melanoma = system: LOX IMVI melanoma
U251 CNS = system: U251 CNS
IGROV1 ovarian = system: IGROV1 ovarian
OVCAR-4 ovarian = system: OVCAR-4 ovarian
OVCAR-5 ovarian = system: OVCAR-5 ovarian
786-0 renal = system: 786-0 renal
CCRF-CEM leukemia = system: CCRF-CEM leukemia
SK-MEL-5 melanoma = system: SK-MEL-5 melanoma
M14 melanoma = system: M14 melanoma
K-562 leukemia = system: K-562 leukemia
A498 renal = system: A498 renal
SK-OV-3 ovarian = system: SK-OV-3 ovarian
XF 498 CNS = system: XF 498 CNS
HOP-62 NSCLC = system: HOP-62 NSCLC
SNB-19 CNS = system: SNB-19 CNS
DLD-1 colon = system: DLD-1 colon
SNB-75 CNS = system: SNB-75 CNS
SF-539 CNS = system: SF-539 CNS
NCI-H23 lung = system: NCI-H23 lung
EKVX NSCLC = system: EKVX NSCLC
COLO 205 colon = system: COLO 205 colon
HCT-15 colon = system: HCT-15 colon
UACC-257 melanoma = system: UACC-257 melanoma

Measured: TGI

COc1ccc(NC(=O)/C(Cc2nc3ccccc3[nH]c2=O)=N\O)c(OC)c1
> 100 µM: all assays above

Reference: PubChem BioAssay (NCI)
